From patent publication US8568754B2, “Low-emission formaldehyde donor preparations and use thereof” (Air Liquide Sante (International), priority 2002, dated 2013)

Conditions: not told

## CC1CN(CN2COC(C)C2)CO1 (centres unmarked) [No. 1, N,N′-methylenebis(5-methyloxazolidine)]
  efflux time from a DIN beaker 4 mm: 22 s
  efflux time from the DIN beaker 6 mm: 6 s
